Reference: publication PMC10251204, “Medicago Sativa Defensin1 as a tumor sensitizer for improving chemotherapy: translation from anti-fungal agent to a potential anti-cancer agent” (Frontiers in Oncology, 2023)
Entries after “also recorded” stand apart in the source; their conditions may differ. Values belong to the molecule of their own block, whether it stands above or below them. Bridges are numbered along the chain shown (N, C = ends). Where no end group is shown, it is not given here.

Experiments:
[1] = IC50 of NBD-labelled peptide, cell line not stated; format: cell-based; settings: similar to native MsDef1
Description: (§1) Cell viability was evaluated by the standard MTT ([…])-2,5-diphenyltetrazolium bromide, Sigma) method. All cancer cells (MDA-MB-231, MCF-7, MCF-R, Hela, MCF-10A epithelial breast cells, induced pluripotent stem cells derived cardiomyocytes (iPSc) were added to the wells of 96-well flat-bottom plates at the density of 2×10^4 per well, allowed to attach overnight, and treated with different concentrations of MsDef1 (1-100 µM). After 24 h, 10 µl of MTT solution was added to each well and the plate was incubated at 37°C for 3 h. After removing the media, 200 µl of isopropanol were added to dissolve the crystals. Absorbance was read at 550 nm in an ELISA plate reader (Sunrise, Tecan, Milan, Italy), and the results are expressed as relative change with respect to the controls set as 100%. For cardiomyocytes, human iPSCs were used (Ionic Transports, St Louis).

[2] = tested on: resistant TNBC MDA-MB-231R cells; experiment: NBD-MsDef1 uptake by confocal microscopy, MDA-MB-231R; format: cell-based; settings: 15 min at 37°C, 20, 6.6 or 2.2 µg/ml, N=4
ovarian SKOV3 cells = experiment: NBD-MsDef1 uptake by confocal microscopy, SKOV3; format: cell-based; settings: 15 min at 37°C, 20, 6.6 or 2.2 µg/ml, N=4
[3] = tested on: normal epithelial breast cells (MCF-10A); experiment: NBD-MsDef1 uptake by confocal microscopy, MCF-10A; format: cell-based; parameters: dose or concentration left out as unconfirmed; settings: even at 5-fold higher dose
fibroblasts cells = experiment: NBD-MsDef1 uptake by confocal microscopy, fibroblasts; format: cell-based; parameters: dose or concentration left out as unconfirmed; settings: even at 5-fold higher dose
MDA-MB-231 cells = experiment: cells; format: cell-based; settings: Homo sapiens, Doxorubicin dose response alone or combined with Def1 at 20 μM, N=4, unit inferred, read-out: IC50 (Figure 6C)
normal cells = experiment: Cell viability, normal cells; format: cell-based; settings: Figure 6B
Description: as §1

MDA-MB-231R cells = experiment: Cell death / apoptosis (TUNEL) synergy study, MDA-MB-231R; format: cell-based; settings: MsDef1 ~25 μM, Doxorubicin; combination = MsDef1 pretreatment followed by Doxorubicin; N=4
Description: (§2) Doxorubicin resistant MCF-7R and MDA-MB-231R cells were grown in DMEM 10% FBS with increasing concentrations of Doxorubicin as described by Bielawski et al. ([40]). Cells were seeded and exposed to increasing concentrations of Doxorubicin (10 nM to 100 nM). MCF-7 or MDA-MB-231 cells were seeded in cell culture flasks and after 24 h, cells were trypsinized, counted viable cells and reseeded into a new culture flask before adding Doxorubicin again.
(§3) The percentage of apoptotic cells was determined by using TUNEL assay according to the manufacturer protocol. Briefly, cells were fixed with 1% paraformaldehyde at 4 °C, followed by two washing with PBS. Cold 70% ethanol was added to the cell pellet. Cells were then incubated at −20°C for permeabilization. After washing with PBS, cells were incubated with staining solution containing TdT enzyme and fluorescein-dUTP for 60 min at 37°C. Samples were washed with rinse buffer and resuspended in […] of propidium iodise/RNase solution for flow cytometry analysis.

MCF-7R cells = experiment: Cell death / apoptosis (TUNEL) synergy study, MCF-7R; format: cell-based; settings: MsDef1 ~25 μM, Doxorubicin; combination = MsDef1 pretreatment followed by Doxorubicin; N=4
Description: as §2, §3

[4] = tested on: GlcCer and Trx positive cancer cells; settings: read-out: inhibitory activity IC50 against several cancer cells
Description: as §1

pepsin = pepsin (Sus scrofa, UniProt P00791); settings: SGF (200 mg NaCl, 0.2% pepsin, pH 2), 500 μL, 37°C, 2 min preincubation, 25 μL of 5 mg/ml protein, SDS PAGE read-out, n=4
pepsin, sequence (P00791 60-385): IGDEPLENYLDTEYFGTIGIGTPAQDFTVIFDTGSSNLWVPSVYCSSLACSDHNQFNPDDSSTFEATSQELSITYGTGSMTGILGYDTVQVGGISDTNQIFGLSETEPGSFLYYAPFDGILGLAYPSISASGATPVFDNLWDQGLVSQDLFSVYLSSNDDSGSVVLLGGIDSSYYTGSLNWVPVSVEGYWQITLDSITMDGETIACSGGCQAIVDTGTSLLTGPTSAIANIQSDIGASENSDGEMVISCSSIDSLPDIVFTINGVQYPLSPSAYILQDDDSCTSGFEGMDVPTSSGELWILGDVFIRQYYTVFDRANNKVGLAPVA
Description: The Simulated Gastric Fluid (SGF) assay was performed as described by Fu et al., 2002 with some modification. Tests were performed in 500 μL of SGF (200 mg NaCl, 0.2% pepsin, pH 2) in glass tubes in a 37°C water bath with continuous stirring of the enzyme reaction. […] Five mg/ml bovine serum albumin (minimum 98%, A-7030, Sigma Aldrich) in ultrapure water was used as the positive control for pepsin digestion. Protein samples were analyzed for degradation by SDS PAGE followed by staining for 1 h and extensive washing with ultrapure water.

IC50 [1]: 12 µM
Molecule: 6-((N-(7-nitrobenz-2-oxa-1, 3-diazol-4-yl) amino) hexanoyl -MsDef1 [NBD-MsDef1]
cell uptake [2]: significant uptake
cell uptake (ovarian SKOV3 cells): significant uptake
cell uptake [3]: did not take up
cell uptake (fibroblasts cells): did not take up

IC50 (MDA-MB-231 cells): 0.396 µM
Molecule: COc1cccc2c1C(=O)c1c(O)c3c(c(O)c1C2=O)C[C@@](O)(C(=O)CO)C[C@@H]3O[C@H]1C[C@H](N)[C@H](O)[C@H](C)O1 [Doxorubicin]
dose at which normal cells are killed / still safe (normal cells): ~ 9.6 μM
cell death (MDA-MB-231R cells): ~ 30%
cell death (MCF-7R cells): ~ 30%

Molecule: RTCENLADKYRGPCFSGCDTHCTTKENAVSGRCRDDFRCWCTKRC (disulfide 3-45, 14-33, 18-39, 22-41) [MsDef1]
IC50 [4]: 10 to 15 µM
stability to digestion in SGF (pepsin): remained undigested; also recorded: no significant change in the intensity of the bands
